Usually IC50 stands for the concentration that inhibits the measured activity by half.

One data set concerns the target T1, MDR1 (Homo sapiens, UniProt P08183).
T1 construct: The cDNA encoding respective transporters were synthetized and cloned by GenScript; host or cells: HEK293 (lentiviral transduction), membrane vesicles
As to the kind of experiment: Vesicular transport inhibition assay, MDR1 membrane vesicles. It counts as biochemical. Particulars: for Igut/IC50 ratio: MDR1, Igut = dose/250 mL, 500 mg dose of UT extract, ICH M12 cut-off 10; for IC50: oxindole alkaloids, substrate NMQ, read-out: IC50 (95% CI of IC50). An excerpt: (§1) The human embryonic kidney 293 (HEK293) cell line was purchased from Invitrogen/ThermoFisher (Waltham, MA, USA). Madin–Darby canine kidney II (MDCKII) wild type cells were obtained from the European Collection of Authenticated Cell Cultures (ECACC catalog no. 00062107). HEK293 cells overexpressing the human uptake OATP1B1 (NCBI Reference Sequence: NM_006446.4), OATP1B3 (NM_019844), OATP2B1 (NM_007256), OATP1A2 (NM_134431), OAT1-3 (BC033682.1; NM_006672.3; BC022387), OCT1-3 (BC126364.1; NM_003058; NM_021977), OCTN1 (NM_003059.3), NTCP (NM_003049.3), MATE1 (NM_018242.3), MATE2K (NM_001099646.2), ENT4 (NM_001040661.1), SGLT2 (AJ133127.1), ASCT1/2 (NM_003038.5; NM_005628.3), LAT1/2 (NM_003486.6; NM_012244.4), and THTR1/2 (NM_006996; NM_025243) and mock and human efflux BCRP (NM_004827.2), BSEP (NM_003742.2), MDR1 (NM_000927.4), and MRP1-5 (NM_004996; NM_000392.4; BC137347.1; NM_005845.4; NM_005688.2) transporters as well as MDCKII overexpressing human ENT1/2 (NM_001078177; NM_001532.2) and URAT1 (BC053348) transporters were created by lentiviral transduction. The cDNA encoding respective transporters were synthetized and cloned by GenScript (Piscataway, NJ, USA). The production of lentivirus supernatants, the transduction of the cells, cloning, functional characterization, and validation were performed by Charles River Laboratories Hungary Kft. (Budapest, Hungary).
(§2) Membrane vesicles were prepared from ABC transporter-overexpressing HEK293 cells by Charles River Laboratories Hungary Kft. as described previously in detail. Vesicles were frozen in liquid nitrogen and stored at −80 °C.
(§3) Vesicular transport inhibition assays were performed using a rapid filtration technique. In brief, the appropriate amount of the protein of each membrane vesicle was mixed with either the extract or isopteropodine, mitraphylline, or uncarine D at one concentration or with their half dilution series from 150 µg/mL or from 100 µM, the suitable transporter substrate, and the assay buffer on ice. Reaction mixtures were preincubated for 15 min at 37 °C with shaking at 250 rpm. Following preincubation, 4 mM Mg-ATP or AMP was added and incubated according to Table S3. Vesicular transport was terminated by adding an ice-cold washing buffer, and the reaction mix was transferred to a MSFBN6B10 filter plate (Merck) for filtration. The filter plates were then dried at 40 °C for 4 h, and radiolabeled substrates retained in the vesicles were detected by liquid scintillation counting as described above. For fluorescent substrates, accumulation was measured with a Clariostar^plus microplate reader (BMG Labtech GmbH, Ortenberg, Germany).
(§4) The transporter-mediated uptake and ATP-dependent transport were determined by subtracting the activity of the control cell/transporter abundant-membrane in the presence of AMP from the activity of the transporter-overexpressing cell/transporter-abundant membrane in the presence of ATP. The relative transporter-specific accumulation was expressed as the percent of DMSO activity. The results were presented as the mean ± SEM from 3 parallels. More than a 20% reduction in transport activity was considered as inhibition. For the IC50 determination, dose–response curves were fitted using a 4-parameter nonlinear model in GraphPad Prism version 9.0. Confidence intervals (CIs) of 95% were also determined.
(§5) Table S3 – Vesicular transport inhibition assay details.
These parameters were set during previous validations. TC: taurocholic acid, E3S: estrone 3 -sulfate,
NMQ: N-methyl-quinidine, E217βG: β-Estradiol 17-(β-D-glucuronide), DHEAS:
Dehydroepiandrosterone sulfate, CDCF: 5(6)-Carboxy-2',7-dichlorofluorescein B.
Parental Transporter Incubation Substrate Substrate µg Incubation
cell time (min) concentration membrane/ temperature

A further data set concerns the target T2, BCRP (Homo sapiens, UniProt Q9UNQ0).
T2 construct: The cDNA encoding respective transporters were synthetized and cloned by GenScript; host or cells: HEK293 (lentiviral transduction), membrane vesicles
T2 sequence (Q9UNQ0 1-655): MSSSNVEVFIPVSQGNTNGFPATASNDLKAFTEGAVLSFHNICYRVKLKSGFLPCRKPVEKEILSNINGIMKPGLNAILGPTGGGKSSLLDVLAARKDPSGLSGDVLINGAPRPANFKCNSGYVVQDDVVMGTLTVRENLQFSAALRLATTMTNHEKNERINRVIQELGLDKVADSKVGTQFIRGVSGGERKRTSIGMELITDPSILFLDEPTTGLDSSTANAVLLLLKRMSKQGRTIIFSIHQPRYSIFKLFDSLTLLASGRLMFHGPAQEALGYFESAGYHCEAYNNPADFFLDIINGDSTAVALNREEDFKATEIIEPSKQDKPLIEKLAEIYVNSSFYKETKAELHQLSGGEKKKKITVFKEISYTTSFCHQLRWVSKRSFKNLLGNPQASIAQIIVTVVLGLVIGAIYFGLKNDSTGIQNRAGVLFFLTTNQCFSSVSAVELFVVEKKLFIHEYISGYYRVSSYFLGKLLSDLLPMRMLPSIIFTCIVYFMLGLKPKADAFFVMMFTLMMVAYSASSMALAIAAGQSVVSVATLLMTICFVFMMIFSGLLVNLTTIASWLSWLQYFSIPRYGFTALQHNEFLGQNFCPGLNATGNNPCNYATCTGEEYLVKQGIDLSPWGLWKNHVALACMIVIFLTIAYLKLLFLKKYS
In words: Vesicular transport inhibition assay, BCRP membrane vesicles. It counts as biochemical. The settings on record: for Igut/IC50 ratio: BCRP, Igut = dose/250 mL, 500 mg dose of UT extract, ICH M12 cut-off 10; for IC50: oxindole alkaloids, substrate E3S, read-out: IC50 (95% CI of IC50).
Excerpt: as §1, §2, §3, §4, §5
These parameters were set during previous validations. TC: taurocholic acid, E3S: estrone 3 -sulfate, […]

In data set [1] the test system is pregnane X receptor (PXR). The settings on record: cited from earlier work.

Like-named read-outs stand apart in the source and are kept apart here.

T1 sequence (P08183 whole entry): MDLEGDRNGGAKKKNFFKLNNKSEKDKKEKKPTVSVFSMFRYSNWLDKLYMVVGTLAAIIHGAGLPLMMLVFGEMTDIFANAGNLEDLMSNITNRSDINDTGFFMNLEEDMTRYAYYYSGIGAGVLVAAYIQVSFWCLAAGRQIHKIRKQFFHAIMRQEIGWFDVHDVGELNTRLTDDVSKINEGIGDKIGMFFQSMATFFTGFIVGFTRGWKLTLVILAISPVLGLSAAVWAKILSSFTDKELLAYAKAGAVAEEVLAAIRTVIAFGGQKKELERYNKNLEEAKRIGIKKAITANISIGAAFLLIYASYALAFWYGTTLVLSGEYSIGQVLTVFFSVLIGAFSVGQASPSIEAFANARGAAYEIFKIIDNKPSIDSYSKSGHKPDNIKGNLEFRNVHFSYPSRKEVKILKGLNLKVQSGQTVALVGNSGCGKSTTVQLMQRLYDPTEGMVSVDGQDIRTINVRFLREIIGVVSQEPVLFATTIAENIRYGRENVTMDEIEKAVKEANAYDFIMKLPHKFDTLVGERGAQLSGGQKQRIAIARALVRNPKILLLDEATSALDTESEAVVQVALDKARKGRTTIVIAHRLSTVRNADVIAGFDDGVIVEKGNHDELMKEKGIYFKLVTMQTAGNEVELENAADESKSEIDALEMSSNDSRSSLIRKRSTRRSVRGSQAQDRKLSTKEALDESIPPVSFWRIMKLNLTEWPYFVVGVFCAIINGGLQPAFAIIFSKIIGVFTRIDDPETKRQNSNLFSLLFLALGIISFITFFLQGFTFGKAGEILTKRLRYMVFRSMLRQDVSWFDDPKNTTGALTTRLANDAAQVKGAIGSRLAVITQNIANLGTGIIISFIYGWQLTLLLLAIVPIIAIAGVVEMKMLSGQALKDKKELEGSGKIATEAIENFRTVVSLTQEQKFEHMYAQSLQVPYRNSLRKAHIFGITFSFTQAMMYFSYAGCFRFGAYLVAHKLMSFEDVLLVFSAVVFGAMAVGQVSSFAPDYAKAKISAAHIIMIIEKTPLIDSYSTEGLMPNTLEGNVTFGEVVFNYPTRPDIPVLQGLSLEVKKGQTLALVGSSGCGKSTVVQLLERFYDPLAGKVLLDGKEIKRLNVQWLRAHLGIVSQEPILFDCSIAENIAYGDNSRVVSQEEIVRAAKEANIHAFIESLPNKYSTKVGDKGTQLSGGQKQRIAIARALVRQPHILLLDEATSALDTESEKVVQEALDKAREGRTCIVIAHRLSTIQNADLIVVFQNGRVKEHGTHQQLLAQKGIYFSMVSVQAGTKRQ

As for `COC(=O)C1=CO[C@@H](C)[C@@H]2CN3CC[C@@]4(C(=O)Nc5ccccc54)[C@@H]3C[C@H]12` [isopteropodine], the “inhibitory effect on transporter-specific transport” value against MDR1 (100 µM alkaloid) was “significantly inhibited”. In addition, the Igut/IC50 ratio is listed as below 10 at MDR1, 0.82 on MDR1 (listed as Isopteropodine), below 10 on BCRP and 0.42 on BCRP (listed as Isopteropodine). Besides, the results for the IC50 on MDR1, at BCRP (listed as Isopteropodine) and at BCRP were 28.2 µM, 54.6 µM and 54.6 µM, respectively. Moreover, the PXR activation entry in data set [1] is given as “PXR activators”.
Turning to `COC(=O)C1=CO[C@@H](C)[C@H]2CN3CC[C@]4(C(=O)Nc5ccccc54)[C@@H]3C[C@H]12` [mitraphylline], the Igut/IC50 ratio on MDR1 and at BCRP was below 10 in each case. Moreover, the transporter-mediated substrate accumulation result at MDR1 (in the presence of the alkaloid (100 µM, Figure 4)) is “below 50%”. The IC50 on MDR1 (listed as Mitraphylline) and on MDR1 was 28.3 µM in each case. Further, in data set [1], the PXR activation entry is on record as “PXR activators”.

These data come from article PMC11597817, “Modulation of Multispecific Transporters by Uncaria tomentosa Extract and Its Major Phytoconstituents” (Pharmaceutics, 2024).
